Results taken from ChEMBL document CHEMBL6127079, “Design and synthesis of spiro[pyrrolidine-3,3'-quinoline]-2,2'-dione derivatives as novel antifungal agents targeting chitin synthase” (Eur J Med Chem, 2024).
≈ marks a conversion by molar mass, not a printed value. *1 amine or outer side, *2 acyl side, *3 side chain or, on linkers, in order; H or OH if unused. Where a SMILES comes first, the peptide text is derived from it. Bridges are numbered along the chain shown (N, C = ends). [ ]: non-standard residue; d: D form. The star is where a group is joined. hTyr(3S-OH,4S-OH,3'-OSO3H) = N[C@H](C(=O)O)[C@H](O)[C@@H](O)c1ccc(O)c(OS(=O)(=O)O)c1; Orn(4R-OH,5R-OH) = O=C([C@H](C[C@@H](O)[C@@H](O)N[*:3])N[*:1])[*:2]; Pro(3S-OH,4S-Me) = C[C@H]1CN[C@H](C(=O)O)[C@H]1O; X1 = CCCCCOc1ccc(-c2cc(-c3ccc(C(=O)*)cc3)no2)cc1; Gln(3R-OH) = NC(=O)C[C@@H](O)[C@H](N)C(=O)O; Hyp = O=C(O)[C@@H]1C[C@@H](O)CN1

How the values were obtained:
[1] = tested on: Cryptococcus neoformans; test: Antifungal activity against Cryptococcus neoformans ATCC 32719 assessed as inhibition of growth incubated for 24 hrs by two-fold serial dilution method; assay type: functional
[2] = tested on: Candida albicans; test: Antifungal activity against Candida albicans ATCC 76615 assessed as inhibition of growth incubated for 24 hrs by two-fold serial dilution method; assay type: functional
[3] = Inhibition of chitin synthase extracted from Candida tropicalis ATCC 750 using UDP-GlcNAc as substrate assessed as inhibition rate by TMB based microplate analyzer relative to control
[4] = tested on: Aspergillus flavus; test: Antifungal activity against Aspergillus flavus ATCC 16870 assessed as inhibition of growth incubated for 24 hrs by two-fold serial dilution method; assay type: functional
[5] = tested on: Candida tropicalis; test: Inhibition of chitin synthase extracted from Candida tropicalis ATCC 750 using UDP-GlcNAc as substrate assessed as inhibition rate at 300 ug/ml by TMB based microplate analyzer relative to control; settings: dose 300.0 µg/ml
[6] = tested on: Aspergillus fumigatus; test: Antifungal activity against Aspergillus fumigatus GIMCC 3.19 assessed as inhibition of growth incubated for 24 hrs by two-fold serial dilution method; assay type: functional
[7] = tested on: Aspergillus fumigatus; test: Antifungal activity against Aspergillus fumigatus GIMCC 3.19 incubated for 24 hrs by half broth dilution based checkerboard method; assay type: functional
[8] = tested on: Cryptococcus neoformans; test: Antifungal activity against fluconazole-resistant Cryptococcus neoformans ATCC 32719 assessed as inhibition of fungal growth incubated for 24 to 72 hrs; assay type: functional; settings: time 24-72 hrs
[9] = tested on: Aspergillus flavus; test: Antifungal activity against Aspergillus flavus ATCC 16870 incubated for 24 hrs by half broth dilution based checkerboard method; assay type: functional
[10] = tested on: Candida albicans; test: Antifungal activity against Candida albicans ATCC 76615 incubated for 24 hrs by half broth dilution based checkerboard method; assay type: functional
[11] = tested on: Cryptococcus neoformans; test: Antifungal activity against Cryptococcus neoformans ATCC 32719 incubated for 24 hrs by half broth dilution based checkerboard method; assay type: functional
[12] = tested on: Aspergillus fumigatus; test: Antifungal activity against fluconazole-resistant Aspergillus fumigatus GIMCC 3.19 assessed as inhibition of fungal growth incubated for 24 to 72 hrs; assay type: functional; settings: time 24-72 hrs
[13] = tested on: Candida albicans; test: Antifungal activity against fluconazole-resistant Candida albicans ATCC 76615 assessed as inhibition of fungal growth incubated for 24 to 72 hrs; assay type: functional; settings: time 24-72 hrs
[14] = tested on: Aspergillus flavus; test: Antifungal activity against fluconazole-resistant Aspergillus flavus ATCC 16870 assessed as inhibition of fungal growth incubated for 24 to 72 hrs; assay type: functional; settings: time 24-72 hrs
[15] = tested on: Candida albicans; test: Antifungal activity against micafungin-resistant Candida albicans ATCC 76615 assessed as inhibition of fungal growth incubated for 24 to 72 hrs; assay type: functional; settings: time 24-72 hrs

Row | SMILES | MIC [1] | MIC [2] | IC50 [3] | MIC [4] | inhibition [5] | MIC [6] | MIC [7] | MIC [8] | MIC [9] | MIC [10] | MIC [11] | MIC [12] | MIC [13] | MIC [14] | MIC [15]
1 | O=C(/C=C/C(=O)Nc1nccs1)Nc1ccc2c(c1)NC(=O)C1(CCNC1=O)C2 (racemic) | 32 µg/mL (≈ 77.8 µM) | 64 µg/mL (≈ 156 µM) | 441 µM | 64 µg/mL (≈ 156 µM) | 55.8% | 32 µg/mL (≈ 77.8 µM) | – | – | – | – | – | – | – | – | –
2 | O=C(/C=C/C(=O)Nc1ccc2c(c1)NC(=O)C1(CCNC1=O)C2)NCc1ccccc1 (racemic) | 16 µg/mL (≈ 38.2 µM) | 32 µg/mL (≈ 76.5 µM) | – | 16 µg/mL (≈ 38.2 µM) | 49.5% | 64 µg/mL (≈ 153 µM) | – | – | – | – | – | – | – | – | –
3 | O=C(CN1CCC(C(=O)Nc2nc3ccccc3s2)CC1)Nc1ccc2c(c1)NC(=O)C1(CCNC1=O)C2 (racemic) | 16 µg/mL (≈ 30 µM) | 64 µg/mL (≈ 120 µM) | 379 µM | 32 µg/mL (≈ 60.1 µM) | 57.7% | 32 µg/mL (≈ 60.1 µM) | – | – | – | – | – | – | – | – | –
4 | CCCCN(CCCC)C(=O)/C=C/C(=O)Nc1ccc2c(c1)NC(=O)C1(CCNC1=O)C2 (racemic) | 128 µg/mL (≈ 291 µM) | 256 µg/mL (≈ 581 µM) | – | 256 µg/mL (≈ 581 µM) | 28.2% | 256 µg/mL (≈ 581 µM) | – | – | – | – | – | – | – | – | –
5 | CCCCNC(=O)/C=C/C(=O)Nc1ccc2c(c1)NC(=O)C1(CCNC1=O)C2 (racemic) | 128 µg/mL (≈ 333 µM) | 128 µg/mL (≈ 333 µM) | – | 64 µg/mL (≈ 166 µM) | 35.7% | 256 µg/mL (≈ 666 µM) | – | – | – | – | – | – | – | – | –
6 | O=C(/C=C/C(=O)Nc1ccc2c(c1)NC(=O)C1(CCNC1=O)C2)Nc1ccccc1 (racemic) | 128 µg/mL (≈ 316 µM) | 64 µg/mL (≈ 158 µM) | – | 64 µg/mL (≈ 158 µM) | 39.6% | 32 µg/mL (≈ 79.1 µM) | – | – | – | – | – | – | – | – | –
7 | CCCCNC(=O)C1CCN(CC(=O)Nc2ccc3c(c2)NC(=O)C2(CCNC2=O)C3)CC1 (racemic) | 128 µg/mL (≈ 281 µM) | 256 µg/mL (≈ 562 µM) | – | 64 µg/mL (≈ 140 µM) | 18.2% | 256 µg/mL (≈ 562 µM) | – | – | – | – | – | – | – | – | –
8 | COc1ccccc1NC(=O)C1CCN(CC(=O)Nc2ccc3c(c2)NC(=O)C2(CCNC2=O)C3)CC1 (racemic) | 32 µg/mL (≈ 63.3 µM) | 64 µg/mL (≈ 127 µM) | – | 32 µg/mL (≈ 63.3 µM) | 39.7% | 128 µg/mL (≈ 253 µM) | – | – | – | – | – | – | – | – | –
9 | O=C(CN1CCC(C(=O)Nc2ccc(F)cc2)CC1)Nc1ccc2c(c1)NC(=O)C1(CCNC1=O)C2 (racemic) | 128 µg/mL (≈ 259 µM) | 128 µg/mL (≈ 259 µM) | – | 32 µg/mL (≈ 64.8 µM) | 79.7% | 64 µg/mL (≈ 130 µM) | – | – | – | – | – | – | – | – | –
10 | CCCCCCNC(=O)C1CCN(CC(=O)Nc2ccc3c(c2)NC(=O)C2(CCNC2=O)C3)CC1 (racemic) | 256 µg/mL (≈ 529 µM) | 128 µg/mL (≈ 265 µM) | – | 256 µg/mL (≈ 529 µM) | 24% | 128 µg/mL (≈ 265 µM) | – | – | – | – | – | – | – | – | –
11 | O=C(/C=C/C(=O)Nc1ccccc1Br)Nc1ccc2c(c1)NC(=O)C1(CCNC1=O)C2 (racemic) | 16 µg/mL (≈ 33.1 µM) | 32 µg/mL (≈ 66.2 µM) | 266 µM | 32 µg/mL (≈ 66.2 µM) | 66.2% | 32 µg/mL (≈ 66.2 µM) | – | – | – | – | – | – | – | – | –
12 | CCCCCNC(=O)/C=C/C(=O)Nc1ccc2c(c1)NC(=O)C1(CCNC1=O)C2 (racemic) | 256 µg/mL (≈ 642 µM) | 256 µg/mL (≈ 642 µM) | – | 128 µg/mL (≈ 321 µM) | 37.9% | 128 µg/mL (≈ 321 µM) | – | – | – | – | – | – | – | – | –
13 | OC(Cn1cncn1)(Cn1cncn1)c1ccc(F)cc1F [FLUCONAZOLE] | 8 µg/mL (≈ 26.1 µM) | 8 µg/mL (≈ 26.1 µM) | – | 4 µg/mL (≈ 13.1 µM) | – | 4 µg/mL (≈ 13.1 µM) | 4 µg/mL | 256 µg/mL (≈ 836 µM) | 4 µg/mL | 8 µg/mL | 8 µg/mL | 256 µg/mL (≈ 836 µM) | 256 µg/mL (≈ 836 µM) | 256 µg/mL (≈ 836 µM) | –
14 | CCCCCOc1ccc(-c2cc(-c3ccc(C(=O)N[C@H]4C[C@@H](O)[C@@H](O)NC(=O)[C@@H]5[C@@H](O)[C@@H](C)CN5C(=O)[C@H]([C@H](O)CC(N)=O)NC(=O)[C@H]([C@H](O)[C@@H](O)c5ccc(O)c(OS(=O)(=O)O)c5)NC(=O)[C@@H]5C[C@@H](O)CN5C(=O)[C@H]([C@@H](C)O)NC4=O)cc3)no2)cc1 [MICAFUNGIN] (X1-[Orn(4R-OH,5R-OH)]T[Hyp][hTyr(3S-OH,4S-OH,3'-OSO3H)][Gln(3R-OH)][Pro(3S-OH,4S-Me)]; lactam 1-C) | – | – | – | – | – | – | – | – | – | – | – | – | – | – | 256 µg/mL (≈ 202 µM)
